Series [1] addresses hERG-encoded potassium channel (Homo sapiens, UniProt Q12809). As to the kind of experiment: Activity against hERG (planar-array-based voltage clamp). The series is classed as cell-based. The source says:
The activity of compounds according to formula I against the hERG-encoded potassium channel can be determined according to Kiss L, et al. Assay Drug Dev Technol. 1 (2003), 127-35: “High throughput ion-channel pharmacology: planar-array-based voltage clamp”.
(In general: The hERG channel carries a current that helps repolarise heart muscle cells.)

The target in the next series is T1, human NK3 receptor (Homo sapiens, UniProt P29371).
T1 construct: expressed in transfected cells
T1 sequence (P29371 1-465): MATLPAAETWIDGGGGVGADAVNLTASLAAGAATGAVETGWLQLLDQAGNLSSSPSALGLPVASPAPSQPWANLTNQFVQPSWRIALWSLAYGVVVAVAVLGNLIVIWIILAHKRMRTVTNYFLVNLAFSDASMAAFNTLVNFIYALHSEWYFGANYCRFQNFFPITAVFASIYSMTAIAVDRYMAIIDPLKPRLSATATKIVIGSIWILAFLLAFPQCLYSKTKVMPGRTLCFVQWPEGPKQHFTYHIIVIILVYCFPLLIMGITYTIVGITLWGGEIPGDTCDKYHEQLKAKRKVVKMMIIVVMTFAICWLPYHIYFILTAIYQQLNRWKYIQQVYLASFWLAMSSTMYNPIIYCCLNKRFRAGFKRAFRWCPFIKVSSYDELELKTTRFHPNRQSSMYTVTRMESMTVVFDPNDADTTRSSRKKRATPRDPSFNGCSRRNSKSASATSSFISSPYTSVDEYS
As to the kind of experiment: FLIPR assay, inhibition of human NK3 receptor activation (intracellular Ca2+). In kind it is cell-based. On the procedure:
(§1) Chinese Hamster Ovary (CHO) K1 cells (obtained from ATCC) were stably transfected with the human NK2 receptor (hNK2R cDNA in pRc/CMV, Invitrogen) or the human NK3 receptor (hNK3R in pcDNA 3.1/Hygro (+)/IRES/CD8, Invitrogen vector modified at AstraZeneca EST-Bio UK, Alderley Park). The cells were transfected with the cationic lipid reagent LIPOFECTAMINE™ (Invitrogen) and selection was performed with Geneticin (G418, Invitrogen) at 1 mg/ml for the hNK2R transfected cells and with Hygromycin (Invitrogen) at 500 μg/ml for the hNK3R transfected cells. Single cell clones were collected by aid of Fluorescence Activated Cell Sorter (FACS), tested for functionality in a FLIPR assay (see below), expanded in culture and cryopreserved for future use. […]
(§2) The activity of a compound of the invention to inhibit NK1/NK2/NK3 receptor activation measured as NK1/NK2/NK3 receptor mediated increase in intracellular Ca^2+ was assessed by the following procedure:
(§3) CHO cells stably transfected with human NK1, NK2 or NK3 receptors were plated in black walled/clear bottomed 96-well plates (Costar 3904) at 3.5×10^4 cells per well and grown for approximately 24 h in normal growth media in a 37° C. […] The response was measured as the peak relative fluorescence after agonist addition and IC50s were calculated from ten-point concentration-response curves for each compound. […]

Series [2] is described as follows: Metabolic stability in liver microsomes (intrinsic clearance). The series is classed as in vitro ADME. The conditions noted are these: human, pH 7.4, HLM. How it is done: The metabolic stability of compounds according to formula I can be determined as described below: The rate of biotransformation can be measured as either metabolite(s) formation or the rate of disappearance of the parent compound. The experimental design involves incubation of low concentrations of substrate (usually 1.0 μM) with liver microsomes (usually 0.5 mg/ml) and taking out aliquotes at varying time points (usually 0, 5, 10, 15, 20, 30, 40 min.). The test compound is usually dissolved in DMSO. The DMSO concentration in the incubation mixture is usually 0.1% or less since more solvent can drastically reduce the activities of some CYP450s. Incubations are done in 100 mM potassium phosphate buffer, pH 7.4 and at 37° C. Acetonitrile or methanol is used to stop the reaction. The parent compound is analysed by HPLC-MS. From the calculated half-life, t1/2, the intrinsic clearance, Clint, is estimated by taking microsomal protein concentration and liver weight is into account.
(In general: Liver microsomes are vesicles of endoplasmic reticulum, rich in cytochrome P450 enzymes.)

Another series has as its target T2, human NK1 receptor (Homo sapiens, UniProt P25103).
T2 construct: Human NK1 receptor cDNA (obtained from RNA-PCR from lung tissue) was subcloned into pRcCMV (Invitrogen); expressed in transfected cells
As to the kind of experiment: FLIPR assay, inhibition of human NK1 receptor activation (intracellular Ca2+). The series is classed as cell-based. On the procedure: as §1, §2, §3

The target of the next series is T3, human NK2 receptor (Homo sapiens, UniProt P21452).
T3 construct: expressed in transfected cells
T3 sequence (P21452 1-398): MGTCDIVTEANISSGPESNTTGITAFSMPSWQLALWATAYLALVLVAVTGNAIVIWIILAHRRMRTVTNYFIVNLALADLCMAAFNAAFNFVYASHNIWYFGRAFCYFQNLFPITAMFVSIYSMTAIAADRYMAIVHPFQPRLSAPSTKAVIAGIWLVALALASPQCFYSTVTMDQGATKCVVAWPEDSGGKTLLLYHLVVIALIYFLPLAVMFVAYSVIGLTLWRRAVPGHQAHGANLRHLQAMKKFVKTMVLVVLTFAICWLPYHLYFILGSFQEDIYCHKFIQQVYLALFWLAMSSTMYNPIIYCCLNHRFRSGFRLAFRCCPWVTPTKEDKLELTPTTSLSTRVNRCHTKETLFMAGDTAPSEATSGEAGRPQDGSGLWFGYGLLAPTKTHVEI
As to the kind of experiment: FLIPR assay, inhibition of human NK2 receptor activation (intracellular Ca2+). The series is classed as cell-based. On the procedure: as §1, §2, §3

Experimental findings from patent US20080146538A1, “Compounds 614” (priority 2006, published 2008) are described below.

Counter-ions that a name gives are not always drawn.

By IC50 is commonly meant the concentration at which inhibition is half-maximal. Low values mean inhibition by little substance, high ones a need for much substance. The microsomal CLint is a measure of how fast metabolising enzymes remove a compound, apart from limits set by blood flow. Read a high microsomal CLint as faster metabolism.

T2 sequence (P25103 whole entry): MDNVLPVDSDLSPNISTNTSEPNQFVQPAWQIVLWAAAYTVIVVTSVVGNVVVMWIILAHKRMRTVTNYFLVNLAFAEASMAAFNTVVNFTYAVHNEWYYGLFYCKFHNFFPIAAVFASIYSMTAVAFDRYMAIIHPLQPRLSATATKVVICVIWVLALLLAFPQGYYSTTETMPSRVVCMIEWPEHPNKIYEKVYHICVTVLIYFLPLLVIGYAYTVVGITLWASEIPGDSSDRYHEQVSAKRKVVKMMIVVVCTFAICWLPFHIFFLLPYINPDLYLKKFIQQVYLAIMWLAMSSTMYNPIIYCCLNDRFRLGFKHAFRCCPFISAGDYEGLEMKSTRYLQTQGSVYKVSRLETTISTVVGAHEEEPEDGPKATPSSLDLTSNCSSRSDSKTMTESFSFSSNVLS
Sequence of hERG-encoded potassium channel (Q12809 whole entry): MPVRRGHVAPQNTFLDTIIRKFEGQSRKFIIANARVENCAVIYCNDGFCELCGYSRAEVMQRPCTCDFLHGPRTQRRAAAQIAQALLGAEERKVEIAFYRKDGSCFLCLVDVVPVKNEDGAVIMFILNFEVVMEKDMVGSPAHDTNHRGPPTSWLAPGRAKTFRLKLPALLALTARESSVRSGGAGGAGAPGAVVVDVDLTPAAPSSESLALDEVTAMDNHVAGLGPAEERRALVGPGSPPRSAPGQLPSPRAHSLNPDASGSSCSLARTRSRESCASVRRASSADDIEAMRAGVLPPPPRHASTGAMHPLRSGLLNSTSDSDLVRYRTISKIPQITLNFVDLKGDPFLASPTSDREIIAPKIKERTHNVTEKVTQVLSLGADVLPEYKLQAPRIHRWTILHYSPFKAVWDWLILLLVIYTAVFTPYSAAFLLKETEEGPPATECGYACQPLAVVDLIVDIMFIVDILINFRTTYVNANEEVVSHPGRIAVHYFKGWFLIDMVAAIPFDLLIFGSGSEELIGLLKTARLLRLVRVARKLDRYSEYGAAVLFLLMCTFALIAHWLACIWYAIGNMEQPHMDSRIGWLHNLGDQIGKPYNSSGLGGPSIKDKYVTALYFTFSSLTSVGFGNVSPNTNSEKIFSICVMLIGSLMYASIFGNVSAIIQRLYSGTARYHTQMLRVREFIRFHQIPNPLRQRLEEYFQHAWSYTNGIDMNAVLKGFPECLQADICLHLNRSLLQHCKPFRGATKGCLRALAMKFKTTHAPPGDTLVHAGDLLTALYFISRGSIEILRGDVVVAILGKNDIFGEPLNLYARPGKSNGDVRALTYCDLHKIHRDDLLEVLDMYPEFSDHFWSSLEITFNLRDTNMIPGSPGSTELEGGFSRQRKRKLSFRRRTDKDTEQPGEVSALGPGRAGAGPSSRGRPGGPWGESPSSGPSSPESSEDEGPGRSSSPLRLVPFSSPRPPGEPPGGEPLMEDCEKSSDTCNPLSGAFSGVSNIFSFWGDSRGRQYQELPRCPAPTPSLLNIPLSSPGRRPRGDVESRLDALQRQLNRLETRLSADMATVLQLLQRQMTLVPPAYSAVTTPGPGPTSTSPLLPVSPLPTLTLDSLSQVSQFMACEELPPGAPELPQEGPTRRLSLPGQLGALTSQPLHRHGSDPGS

`CN(C[C@@H](CCN1CC(N2[C@@H]3CC[C@H]2CC(O)C3)C1)c1ccc(F)cc1)C(=O)c1cc(Br)cc(C(F)(F)F)c1` (stereo partly drawn) [Ex 1, exo-3-Bromo-N-((2S)-2-(4-fluorophenyl)-4-{3-(3-hydroxy-8-azabicyclo[3.2.1]oct-8-yl)azetidin-1-yl}butyl)-N-methyl-5-(trifluoromethyl)benzamide dihydrochloride] showed an IC50 in series [1] of 13000 nM. Besides, the Kb at human NK3 receptor is 12.6 nM; on human NK1 receptor it was 7.94 nM; at human NK2 receptor, 7.94 nM. In series [2], this molecule returned a microsomal CLint at 1 μM of 28 µL/min/mg.
